Measurements from US20230085307A1, “PYRIDAZINONE COMPOUND AND HERBICIDE” (NISSAN CHEMICAL CORPORATION, priority 2019, published 2023).

Columns and labels:
southern crabgrass [1] = test: Test Example 4: herbicidal effect by soil treatment (Table 19, symbol F); type: in vivo, southern crabgrass (Digitaria ciliaris)
How it was run: (§1)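 Step 1: sow seeds in sterilized diluvial soil, cover ~1.5 cm. Step 2: spray diluted emulsion onto soil surface at predetermined rate. Step 3: greenhouse, 25–30° C, three weeks. Step 4: grade effect on each plant by earlier criteria.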

green foxtail [2] = test: Test Example 4: herbicidal effect by soil treatment (Table 19, symbol G); type: in vivo, green foxtail (Setaria viridis)
How it was run: as §1

barnyard grass [3] = test: Test Example 4: herbicidal effect by soil treatment (Table 19, symbol H); type: in vivo, barnyard grass (Echinochloa crus-galli)
How it was run: as §1

wild oat [4] = test: Test Example 4: herbicidal effect by soil treatment (Table 19, symbol I); type: in vivo, wild oat (Avena fatua)
How it was run: as §1

blackgrass [5] = test: Test Example 4: herbicidal effect by soil treatment (Table 19, symbol J); type: in vivo, blackgrass (Alopecurus myosuroides)
How it was run: as §1

Italian ryegrass [6] = test: Test Example 4: herbicidal effect by soil treatment (Table 19, symbol K); type: in vivo, Italian ryegrass (Lolium multiflorum)
How it was run: as §1

windgrass [7] = test: Test Example 4: herbicidal effect by soil treatment (Table 19, symbol L); type: in vivo, windgrass (Apera spica-venti)
How it was run: as §1

velvetleaf [8] = test: Test Example 4: herbicidal effect by soil treatment (Table 19, symbol M); type: in vivo, velvetleaf (Abutilon theophrasti)
How it was run: as §1

redroot pigweed [9] = test: Test Example 4: herbicidal effect by soil treatment (Table 19, symbol N); type: in vivo, redroot pigweed (Amaranthus retroflexus)
How it was run: as §1

lambsquarters [10] = test: Test Example 4: herbicidal effect by soil treatment (Table 19, symbol O); type: in vivo, lambsquarters (Chenopodium album)
How it was run: as §1

chickweed [11] = test: Test Example 4: herbicidal effect by soil treatment (Table 19, symbol P); type: in vivo, common chickweed (Stellaria media)
How it was run: as §1

persian speedwell [12] = test: Test Example 4: herbicidal effect by soil treatment (Table 19, symbol R); type: in vivo, Persian speedwell (Veronica persica)
How it was run: as §1

southern crabgrass [13] = test: Test Example 5: herbicidal effect by foliage application, plastic box (Table 20, symbol F); type: in vivo, southern crabgrass (Digitaria ciliaris)
How it was run: (§2)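 Foliar spray test: emulsion formulation diluted in water to a set application rate, sprayed onto 14-day-old plants raised in diluvial soil at 25° C to 30° C under glass. Both herbicidal effect and crop effect rated visually three weeks later.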

green foxtail [14] = test: Test Example 5: herbicidal effect by foliage application, plastic box (Table 20, symbol G); type: in vivo, green foxtail (Setaria viridis)
How it was run: as §2

barnyard grass [15] = test: Test Example 5: herbicidal effect by foliage application, plastic box (Table 20, symbol H); type: in vivo, barnyard grass (Echinochloa crus-galli)
How it was run: as §2

wild oat [16] = test: Test Example 5: herbicidal effect by foliage application, plastic box (Table 20, symbol I); type: in vivo, wild oat (Avena fatua)
How it was run: as §2

blackgrass [17] = test: Test Example 5: herbicidal effect by foliage application, plastic box (Table 20, symbol J); type: in vivo, blackgrass (Alopecurus myosuroides)
How it was run: as §2

Italian ryegrass [18] = test: Test Example 5: herbicidal effect by foliage application, plastic box (Table 20, symbol K); type: in vivo, Italian ryegrass (Lolium multiflorum)
How it was run: as §2

windgrass [19] = test: Test Example 5: herbicidal effect by foliage application, plastic box (Table 20, symbol L); type: in vivo, windgrass (Apera spica-venti); conditions: foliage application, AAH 320 g/ha, three weeks after application
How it was run: as §2

velvetleaf [20] = test: Test Example 5: herbicidal effect by foliage application, plastic box (Table 20, symbol M); type: in vivo, velvetleaf (Abutilon theophrasti)
How it was run: as §2

redroot pigweed [21] = test: Test Example 5: herbicidal effect by foliage application, plastic box (Table 20, symbol N); type: in vivo, redroot pigweed (Amaranthus retroflexus)
How it was run: as §2

lambsquarters [22] = test: Test Example 5: herbicidal effect by foliage application, plastic box (Table 20, symbol O); type: in vivo, lambsquarters (Chenopodium album)
How it was run: as §2

chickweed [23] = test: Test Example 5: herbicidal effect by foliage application, plastic box (Table 20, symbol P); type: in vivo, common chickweed (Stellaria media)
How it was run: as §2

persian speedwell [24] = test: Test Example 5: herbicidal effect by foliage application, plastic box (Table 20, symbol R); type: in vivo, Persian speedwell (Veronica persica)
How it was run: as §2

barnyard grass [25] = test: Test Example 3: herbicidal effect by foliage application, Wagner pot (Table 18, symbol H); type: in vivo, barnyard grass (Echinochloa crus-galli); conditions: 320 g/ha
How it was run: (§3)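 Plants were sown in alluvial soil held under 0.1–0.5 cm standing water and grown 14 days in a greenhouse at 25–30 °C. An emulsifiable formulation, water-diluted to the set dose, was then sprayed onto the foliage, and effects were scored three weeks later using previously defined criteria.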

Chinese sprangletop = test: Test Example 3: herbicidal effect by foliage application, Wagner pot (Table 18, symbol D); type: in vivo, chinese sprangletop (Leptochloa chinensis); conditions: 320 g/ha
How it was run: as §3

rice flat sedge = test: Test Example 3: herbicidal effect by foliage application, Wagner pot (Table 18, symbol E); type: in vivo, rice flat sedge (Cyperus iria); conditions: 320 g/ha
How it was run: as §3

[26] = foliage application, AAH 320 g/ha, three weeks after application
[27] = amount of applied herbicide 320 g/ha
[28] = 320 g/ha, foliage application after 14-day growth, evaluated three weeks after application

Cc1nn(C)c(=O)c(-c2c(-c3ccc(OS(=O)(=O)C(F)(F)F)cc3)sc3ccccc23)c1O [1-147]
F: southern crabgrass, herbicidal effect rating (southern crabgrass [1]; AAH 320 g/ha): 0 (Herbicidal rate of 5% or less (almost no effect))
G: green foxtail, herbicidal effect rating (green foxtail [2]; AAH 320 g/ha): 0 (Herbicidal rate of 5% or less (almost no effect))
H: barnyard grass, herbicidal effect rating (barnyard grass [3]; AAH 320 g/ha): 0 (Herbicidal rate of 5% or less (almost no effect))
I: wild oat, herbicidal effect rating (wild oat [4]; AAH 320 g/ha): 0 (Herbicidal rate of 5% or less (almost no effect))
J: blackgrass, herbicidal effect rating (blackgrass [5]; AAH 320 g/ha): 0 (Herbicidal rate of 5% or less (almost no effect))
K: Italian ryegrass, herbicidal effect rating (Italian ryegrass [6]; AAH 320 g/ha): 0 (Herbicidal rate of 5% or less (almost no effect))
L: windgrass, herbicidal effect rating (windgrass [7]; AAH 320 g/ha): 0 (Herbicidal rate of 5% or less (almost no effect))
M: velvetleaf, herbicidal effect rating (velvetleaf [8]; AAH 320 g/ha): 0 (Herbicidal rate of 5% or less (almost no effect))
N: redroot pigweed, herbicidal effect rating (redroot pigweed [9]; AAH 320 g/ha): 2 (Herbicidal rate of 20% or more and less than 40%)
O: lambsquarters, herbicidal effect rating (lambsquarters [10]; AAH 320 g/ha): 3 (Herbicidal rate of 40% or more and less than 70%)
P: chickweed, herbicidal effect rating (chickweed [11]; AAH 320 g/ha): 5 (Herbicidal rate of 90% or more (almost completely withered))
R: persian speedwell, herbicidal effect rating (persian speedwell [12]; AAH 320 g/ha): 5 (Herbicidal rate of 90% or more (almost completely withered))
F: southern crabgrass, herbicidal effect (southern crabgrass [13]; [26]): 0 (Herbicidal rate of 5% or less (almost no effect))
G: green foxtail, herbicidal effect (green foxtail [14]; [26]): 0 (Herbicidal rate of 5% or less (almost no effect))
H: barnyard grass, herbicidal effect (barnyard grass [15]; [26]): 0 (Herbicidal rate of 5% or less (almost no effect))
I: wild oat, herbicidal effect (wild oat [16]; [26]): 0 (Herbicidal rate of 5% or less (almost no effect))
J: blackgrass, herbicidal effect (blackgrass [17]; [26]): 0 (Herbicidal rate of 5% or less (almost no effect))
K: Italian ryegrass, herbicidal effect (Italian ryegrass [18]; [26]): 0 (Herbicidal rate of 5% or less (almost no effect))
L: windgrass, herbicidal effect (windgrass [19]): 0 (Herbicidal rate of 5% or less (almost no effect))
M: velvetleaf, herbicidal effect (velvetleaf [20]; [26]): 1 (Herbicidal rate of 5% or more and less than 20%)
N: redroot pigweed, herbicidal effect (redroot pigweed [21]; [26]): 0 (Herbicidal rate of 5% or less (almost no effect))
O: lambsquarters, herbicidal effect (lambsquarters [22]; [26]): 2 (Herbicidal rate of 20% or more and less than 40%)
P: chickweed, herbicidal effect (chickweed [23]; [26]): 5 (Herbicidal rate of 90% or more (almost completely withered))
R: persian speedwell, herbicidal effect (persian speedwell [24]; [26]): 5 (Herbicidal rate of 90% or more (almost completely withered))

Cc1nn(C)c(=O)c(-c2c(-c3ccc(F)cc3)sc3c(F)cccc23)c1O [4-001]
herbicidal effect on barnyard grass (H) (barnyard grass [25]): 4 (Herbicidal rate of 70% or more and less than 90%)
herbicidal effect on Chinese sprangletop (D) (Chinese sprangletop): 3 (Herbicidal rate of 40% or more and less than 70%)
herbicidal effect on rice flat sedge (E) (rice flat sedge): 5 (Herbicidal rate of 90% or more (almost completely withered))
Herbicidal effect by soil treatment, F: southern crabgrass (southern crabgrass [1]; [27]): 0 (Herbicidal rate of 5% or less (almost no effect))
Herbicidal effect by soil treatment, G: green foxtail (green foxtail [2]; [27]): 0 (Herbicidal rate of 5% or less (almost no effect))
Herbicidal effect by soil treatment, H: barnyard grass (barnyard grass [3]; [27]): 0 (Herbicidal rate of 5% or less (almost no effect))
Herbicidal effect by soil treatment, I: wild oat (wild oat [4]; [27]): 0 (Herbicidal rate of 5% or less (almost no effect))
Herbicidal effect by soil treatment, J: blackgrass (blackgrass [5]; [27]): 0 (Herbicidal rate of 5% or less (almost no effect))
Herbicidal effect by soil treatment, K: Italian ryegrass (Italian ryegrass [6]; [27]): 0 (Herbicidal rate of 5% or less (almost no effect))
Herbicidal effect by soil treatment, L: windgrass (windgrass [7]; [27]): 0 (Herbicidal rate of 5% or less (almost no effect))
Herbicidal effect by soil treatment, M: velvetleaf (velvetleaf [8]; [27]): 3 (Herbicidal rate of 40% or more and less than 70%)
Herbicidal effect by soil treatment, N: redroot pigweed (redroot pigweed [9]; [27]): 2 (Herbicidal rate of 20% or more and less than 40%)
Herbicidal effect by soil treatment, O: lambsquarters (lambsquarters [10]; [27]): 5 (Herbicidal rate of 90% or more (almost completely withered))
Herbicidal effect by soil treatment, P: chickweed (chickweed [11]; [27]): 4 (Herbicidal rate of 70% or more and less than 90%)
Herbicidal effect by soil treatment, R: persian speedwell (persian speedwell [12]; [27]): 4 (Herbicidal rate of 70% or more and less than 90%)
herbicidal effect on F: southern crabgrass (evaluation grade 0-5) (southern crabgrass [13]; [28]): 0 (Herbicidal rate of 5% or less (almost no effect))
herbicidal effect on G: green foxtail (evaluation grade 0-5) (green foxtail [14]; [28]): 4 (Herbicidal rate of 70% or more and less than 90%)
herbicidal effect on H: barnyard grass (evaluation grade 0-5) (barnyard grass [15]; [28]): 2 (Herbicidal rate of 20% or more and less than 40%)
herbicidal effect on I: wild oat (evaluation grade 0-5) (wild oat [16]; [28]): 0 (Herbicidal rate of 5% or less (almost no effect))
herbicidal effect on J: blackgrass (evaluation grade 0-5) (blackgrass [17]; [28]): 2 (Herbicidal rate of 20% or more and less than 40%)
herbicidal effect on K: Italian ryegrass (evaluation grade 0-5) (Italian ryegrass [18]; [28]): 2 (Herbicidal rate of 20% or more and less than 40%)
herbicidal effect on M: velvetleaf (evaluation grade 0-5) (velvetleaf [20]; [28]): 5 (Herbicidal rate of 90% or more (almost completely withered))
herbicidal effect on N: redroot pigweed (evaluation grade 0-5) (redroot pigweed [21]; [28]): 3 (Herbicidal rate of 40% or more and less than 70%)
herbicidal effect on O: lambsquarters (evaluation grade 0-5) (lambsquarters [22]; [28]): 2 (Herbicidal rate of 20% or more and less than 40%)
herbicidal effect on P: chickweed (evaluation grade 0-5) (chickweed [23]; [28]): 5 (Herbicidal rate of 90% or more (almost completely withered))
herbicidal effect on R: persian speedwell (evaluation grade 0-5) (persian speedwell [24]; [28]): 5 (Herbicidal rate of 90% or more (almost completely withered))
